# PMC6332508, “A Promising PET Tracer for Imaging of α7 Nicotinic Acetylcholine Receptors in the Brain: Design, Synthesis, and in Vivo Evaluation of a Dibenzothiophene-Based Radioligand” (Molecules, 2015)
# Where “and” joins values, the source holds several entries; their conditions need not be identical. Identical values can stand only once.
# Test system: α7 nAChR
# Assay: Dynamic PET studies in piglets with kinetic modelling (2TCM)
# Assay type: in vivo
# Set-up: clearance rate constant k2, mean: unit not given here
# Conditions: for VND / BPND / Rate Constant K1 / Rate Constant k2 / Rate Constant k3 / Rate Constant k4: piglet brain, 240 min scan data, n = 3; for total volume of distribution VT: piglet, K1/k2(1 + k3/k4)
# Description: One-tissue and two-tissue compartment models (1TCM and 2TCM) were evaluated for mathematical description of [^18F]10a time-activity curves (TACs) in pig brain regions (Figure 3) using metabolite-corrected arterial plasma input functions. The 2TCM was identified as the more appropriate model based on its smaller Akaike information criterion (AIC) value. The four rate constants K1, k2, k3, and k4 were fitted and the non-displaceable volume of distribution (VND = K1/k2) and the binding potential (BPND = k3/k4) as defined by Innis et al. were calculated for each region of interest (Table 3 and Table 4).
# Six female animals were used in this study with anesthesia and surgery performed as described previously. In brief, the animals received initially a premedication with midazolam (1 mg∙kg^−1 i.m.) followed by induction of anesthesia with 3% isoflurane in 70% N2O/30% O2. All incision sites were infiltrated with 1% lidocaine, and the anesthesia was maintained with 1.5% isoflurane throughout the surgical procedure. A central venous catheter was introduced through the left external jugular vein and used for the administration of the radiotracer and drugs, and for volume substitution with heparinized (50 IE∙mL^−1) lactated Ringer’s solution (2 mL∙kg^−1∙h^−1). An endotracheal tube was inserted by tracheotomy for artificial ventilation (Servo Ventilator 900C, Siemens-Elema, Solna, Sweden) after immobilization with pancuronium bromide (0.2 mg∙kg^−1∙h^−1). The artificial ventilation was adjusted to obtain normoxia and normocapnia (Radiometer ABL 500, Copenhagen, Denmark). Polyurethane catheters (i.d., 0.5 mm) were advanced through the left and the right femoral arteries into the abdominal aorta to withdraw arterial blood samples for regular monitoring of blood gases and for radiotracer input function measurements and metabolite analyses. The body temperature was monitored by a rectal temperature probe and maintained at ~38 °C by a heating pad. After the surgical procedure has been completed, anesthesia was maintained with 0.5% isoflurane in 70% N2O/30% O2, and the animals were allowed to stabilize for 1 h before imaging procedure.
# PET imaging was performed according to the protocol described recently. In brief, a clinical tomograph (ECAT Exact HR+; Siemens Healthcare GmbH, Erlangen, Germany) was used with animals lying prone with the head placed in a custom-made head holder. For attenuation and scatter correction, transmission scans were acquired using three rotating ^68Ge rod sources. The radiotracer was injected as an intravenous (i.v.) bolus (10 mL saline with 340–494 MBq [^18F]10a) by a syringe pump within 2 min followed by flushing with 10 mL heparinized saline (50 IE∙mL^−1). PET scanning started at the time of injection (0 min) and dynamic emission data were acquired for a total of 240 min. Three animals were investigated under baseline conditions, and another three under blocking conditions with administration of 3 mg∙kg^−1 i.v. of the α7 nAChR partial agonist NS6740 at 3 min before radiotracer injection followed by a continuous infusion throughout the scan (1 mg∙kg^−1∙h^−1).
# Arterial blood was sampled using a peristaltic pump during the first 20 min of the scan followed by manual sampling at 25, 30, 40, 50, 60, 90, 120, 150, 180, 210, and 240 min after injection. Plasma was obtained by centrifugation (13,000 rpm, 2 min at 21 °C) and total radioactivity concentration was measured using a gamma-counter (1470 Wizard; PerkinElmer, Shelton, CT, USA) cross-calibrated to the PET scanner. In addition, arterial whole blood was sampled manually at 4, 16, 30, 60, and 120 min p.i. and plasma obtained for metabolite analyses to determine the fraction of non-metabolized [^18F]10a.
# The plasma input function was corrected for the presence of radioactive metabolites by determination of the parent fraction as described previously. […]
# [1] = Occipital Cortex, blocking (NS6740)
# [2] = Parietal Cortex, blocking (NS6740)
compound,measurement,setting,value
O=S1(=O)c2ccc([18F])cc2-c2ccc(N3CCN4CCC3CC4)cc21 [[^18F]10a],VND,"Occipital Cortex, baseline",4.07 ± 2.23
same,BPND,[1],0.95 ± 1.03
same,Rate Constant K1,[1],0.668 ± 0.103 mL·cm^−3·min^−1
same,Rate Constant k2,[1],0.064 ± 0.019 min⁻¹
same,Rate Constant k3,[1],0.022 ± 0.032 min⁻¹
same,Rate Constant k4,[1],0.013 ± 0.023 min⁻¹
same,VND,[1],11.36 ± 4.41
same,BPND,"Parietal Cortex, baseline",3.47 ± 1.65
same,Rate Constant K1,"Parietal Cortex, baseline",0.399 ± 0.038 mL·cm^−3·min^−1
same,Rate Constant k2,"Parietal Cortex, baseline",0.140 ± 0.089 min⁻¹
same,Rate Constant k3,"Parietal Cortex, baseline",0.126 ± 0.135 min⁻¹
same,Rate Constant k4,"Parietal Cortex, baseline",0.031 ± 0.021 min⁻¹
same,VND,"Parietal Cortex, baseline",3.88 ± 2.49
same,BPND,[2],0.82 ± 0.88
same,Rate Constant K1,[2],0.659 ± 0.120 mL·cm^−3·min^−1
same,Rate Constant k2,[2],0.055 ± 0.013 min⁻¹
same,Rate Constant k3,[2],0.015 ± 0.020 min⁻¹
same,Rate Constant k4,[2],0.011 ± 0.021 min⁻¹
same,VND,[2],12.58 ± 4.52
same,BPND,"Pons, baseline",2.76 ± 0.81
same,Rate Constant K1,"Pons, baseline",0.440 ± 0.045 mL·cm^−3·min^−1
same,Rate Constant k2,"Pons, baseline",0.149 ± 0.059 min⁻¹
same,Rate Constant k3,"Pons, baseline",0.068 ± 0.042 min⁻¹
same,Rate Constant k4,"Pons, baseline",0.026 ± 0.019 min⁻¹
same,VND,"Pons, baseline",3.32 ± 1.40
same,BPND,"Pons, blocking (NS6740)",0.76 ± 1.16
same,Rate Constant K1,"Pons, blocking (NS6740)",0.670 ± 0.092 mL·cm^−3·min^−1
same,Rate Constant k2,"Pons, blocking (NS6740)",0.084 ± 0.030 min⁻¹
same,Rate Constant k3,"Pons, blocking (NS6740)",0.019 ± 0.023 min⁻¹
same,Rate Constant k4,"Pons, blocking (NS6740)",0.012 ± 0.016 min⁻¹
same,VND,"Pons, blocking (NS6740)",8.93 ± 3.96
same,BPND,"Striatum, baseline",3.98 ± 1.40
same,Rate Constant K1,"Striatum, baseline",0.382 ± 0.028 mL·cm^−3·min^−1
same,Rate Constant k2,"Striatum, baseline",0.144 ± 0.079 min⁻¹
same,Rate Constant k3,"Striatum, baseline",0.114 ± 0.093 min⁻¹
same,Rate Constant k4,"Striatum, baseline",0.027 ± 0.014 min⁻¹
same,VND,"Striatum, baseline",3.35 ± 1.81
same,BPND,"Striatum, blocking (NS6740)",0.75 ± 1.29
same,Rate Constant K1,"Striatum, blocking (NS6740)",0.624 ± 0.143 mL·cm^−3·min^−1
same,Rate Constant k2,"Striatum, blocking (NS6740)",0.057 ± 0.015 min⁻¹
same,Rate Constant k3,"Striatum, blocking (NS6740)",0.020 ± 0.025 min⁻¹
same,Rate Constant k4,"Striatum, blocking (NS6740)",0.011 ± 0.017 min⁻¹
same,VND,"Striatum, blocking (NS6740)",11.78 ± 4.91
same,BPND,"Thalamus, baseline",3.51 ± 1.13
same,Rate Constant K1,"Thalamus, baseline",0.448 ± 0.027 mL·cm^−3·min^−1
same,Rate Constant k2,"Thalamus, baseline",0.150 ± 0.071 min⁻¹
same,Rate Constant k3,"Thalamus, baseline",0.111 ± 0.085 min⁻¹
same,Rate Constant k4,"Thalamus, baseline",0.030 ± 0.018 min⁻¹
same,VND,"Thalamus, baseline",3.67 ± 2.10
same,BPND,"Thalamus, blocking (NS6740)",0.88 ± 1.00
same,Rate Constant K1,"Thalamus, blocking (NS6740)",0.762 ± 0.129 mL·cm^−3·min^−1
same,Rate Constant k2,"Thalamus, blocking (NS6740)",0.070 ± 0.025 min⁻¹
same,Rate Constant k3,"Thalamus, blocking (NS6740)",0.023 ± 0.031 min⁻¹
same,Rate Constant k4,"Thalamus, blocking (NS6740)",0.012 ± 0.021 min⁻¹
same,VND,"Thalamus, blocking (NS6740)",12.09 ± 5.31
same,BPND,"Whole, baseline",3.31 ± 1.02
same,Rate Constant K1,"Whole, baseline",0.362 mL·cm^−3·min^−1 and 0.362 ± 0.038 mL·cm^−3·min^−1
same,Rate Constant k2,"Whole, baseline",0.131 ± 0.062 min⁻¹
same,Rate Constant k3,"Whole, baseline",0.093 ± 0.074 min⁻¹
same,Rate Constant k4,"Whole, baseline",0.027 ± 0.018 min⁻¹
same,VND,"Whole, baseline",3.32 ± 1.74
same,BPND,"Whole, blocking (NS6740)",0.84 ± 1.07
same,Rate Constant K1,"Whole, blocking (NS6740)",0.598 ± 0.108 mL·cm^−3·min^−1
same,Rate Constant k2,"Whole, blocking (NS6740)",0.062 ± 0.015 min⁻¹
same,Rate Constant k3,"Whole, blocking (NS6740)",0.018 ± 0.022 min⁻¹
same,Rate Constant k4,"Whole, blocking (NS6740)",0.011 ± 0.018 min⁻¹
same,VND,"Whole, blocking (NS6740)",10.27 ± 3.94
same,total volume of distribution VT,"cerebellum, baseline",13 mL∙cm^−3
same,total volume of distribution VT,"thalamus, baseline",17 mL∙cm^−3
same,"clearance rate constant k2, mean","whole brain, baseline",0.131
